This note sets out measurements from patent US20210207188A1, “BETA-LACTAM COMPOUNDS AND METHODS OF USE THEREOF” (priority 2018, published 2021).

Format in all cases: biochemical
Assay [1] deals with beta-lactamases, including NDM-1, IMP-1, VIM-2, KPC-2, OXA-48, AmpC, and TEM. In words: Fluorescence-based activity assay, whole panel of tested beta-lactamases. The conditions noted are these: probe 2.0 μM; MCW-010 within 20 minutes. On the procedure: (§1) Recombinant his-tagged beta-lactamases, including NDM-1, IMP-1, KPC-2, VIM-2 and OXA-48 were overexpressed in Escherichia coli. The enzymes were purified using HisTrap Ni-NTA columns. AmpC and TEM were purchased from commercial sources.
(§2) The fluorescence-based activity assays were performed in phosphate-buffer saline. The concentration of some of the compounds were determined by boiling the compounds in PBS solution until fluorescence signal was saturated. The amount of released fluorophore was quantified via fluorescence spectroscopy by comparing to a corresponding calibration curve.
Among the tested beta-lactamases, NDM-1, IMP-1, VIM-2, KPC-2 and OXA-48 are carbapenemases, whereas AmpC and TEM are not. Nitrocefin was used as a control to test the activity of the beta-lactamases because it can be hydrolyzed by a wide range of beta-lactamases.

The target of assay [2] is T1, KPC-2 (Klebsiella pneumoniae, UniProt Q9F663).
T1 construct: His tag; made in house; host or cells: Escherichia coli
On the procedure: as §1, §2

Assay [3] concerns the target T2, NDM-1 (Klebsiella pneumoniae, UniProt C7C422).
T2 construct: His tag; made in house; host or cells: Escherichia coli
On the procedure: as §1, §2

In assay [4] the target is T3, IMP-1 (Serratia marcescens, UniProt P52699).
T3 construct: His tag; made in house; host or cells: Escherichia coli
The conditions noted are these: IMP-1. The protocol:
as §1, §2

Assay [5] deals with T4, VIM-2 (Escherichia coli, UniProt Q5U7L7).
T4 construct: His tag; made in house; host or cells: Escherichia coli
On the procedure:
as §1, §2

[6] abbreviates: probe 2.0 μM (MCW-002 1.1 μM, MCW-011 0.5 μM), PBS.

T3 sequence (P52699 19-246 limits assumed): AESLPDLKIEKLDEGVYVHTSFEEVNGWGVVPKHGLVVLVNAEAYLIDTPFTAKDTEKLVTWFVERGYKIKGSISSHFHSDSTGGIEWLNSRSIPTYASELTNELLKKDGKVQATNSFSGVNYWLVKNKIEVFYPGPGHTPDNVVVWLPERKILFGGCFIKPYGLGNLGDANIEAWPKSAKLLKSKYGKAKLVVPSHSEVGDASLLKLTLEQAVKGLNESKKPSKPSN
T2 sequence (C7C422 29-270 limits assumed): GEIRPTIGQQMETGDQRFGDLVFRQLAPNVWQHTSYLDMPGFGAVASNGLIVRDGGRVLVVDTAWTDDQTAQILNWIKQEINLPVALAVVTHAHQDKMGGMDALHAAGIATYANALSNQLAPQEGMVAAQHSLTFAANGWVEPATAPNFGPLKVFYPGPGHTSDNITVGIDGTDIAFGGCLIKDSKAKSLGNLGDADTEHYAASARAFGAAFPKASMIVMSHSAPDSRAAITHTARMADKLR
T1 sequence (Q9F663 25-293 limits assumed): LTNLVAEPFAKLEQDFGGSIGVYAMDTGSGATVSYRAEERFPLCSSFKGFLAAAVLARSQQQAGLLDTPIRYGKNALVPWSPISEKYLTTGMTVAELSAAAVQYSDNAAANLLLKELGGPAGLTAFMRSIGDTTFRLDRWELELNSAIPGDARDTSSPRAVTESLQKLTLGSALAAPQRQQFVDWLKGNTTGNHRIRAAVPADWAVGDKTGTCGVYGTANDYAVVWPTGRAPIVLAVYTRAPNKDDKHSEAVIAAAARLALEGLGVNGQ

As to `COC(=O)C1=C(/C=C/COc2ccc(COc3ccc4nc5ccc(=O)cc-5oc4c3)cc2OC)C[C@@H]2[C@@H]([C@@H](C)O)C(=O)N12` [MCW-003, Methyl (5R,6S)-6-((R)-1-hydroxyethyl)-3-((E)-3-(2-methoxy-4-(((3-oxo-3H-phenoxazin-7-yl)oxy)methyl)phenoxy)prop-1-en-1-yl)-7-oxo-1-azabicyclo[3.2.0]hept-2-ene-2-carboxylate], the “changes in the fluorescence signal with the tested beta-lactamases” value in assay [1] is “unreactive to the tested beta-lactamases”.
Still for that read-out and setting: under `COc1cc(COc2ccc3nc4ccc(=O)cc-4oc3c2)ccc1OC/C=C/C1=C(C(=O)N(C)O)N2C(=O)[C@H]([C@@H](C)O)[C@H]2C1` [MCW-006, (5R,6S)-N-hydroxy-6-((R)-1-hydroxyethyl)-3-((E)-3-(2-methoxy-4-(((3-oxo-3H-phenoxazin-7-yl)oxy)methyl)phenoxy)prop-1-en-1-yl)-N-methyl-7-oxo-1-azabicyclo[3.2.0]hept-2-ene-2-carboxamide] stands “unreactive to the tested beta-lactamases”.
Take `COc1ccc(-c2c3ccc(=O)cc-3oc3cc(OCc4ccc(C5=C(C(=O)O)N6C(=O)[C@H]([C@@H](C)O)[C@H]6C5)cc4)ccc23)c(C)c1` [MCW-009, (5R,6S)-6-((R)-1-hydroxyethyl)-3-(4-(((9-(4-methoxy-2-methylphenyl)-3-oxo-3H-xanthen-6-yl)oxy)methyl)phenyl)-7-oxo-1-azabicyclo[3.2.0]hept-2-ene-2-carboxylic acid]: the “time until hydrolysis reaction complete (fluorescent signal plateaued)” value in assay [2] (probe 2.0 μM), in assay [3] (probe 2.0 μM), in assay [4] (probe 2.0 μM) and in assay [5] (probe 2.0 μM) was > 20 min each time. The “fluorescence signal over time” value in assay [2] (setting [6]) is given as “increase in the fluorescent signal”; in assay [3] (setting [6]), “increase in the fluorescent signal”; in assay [4] (setting [6]) it was “increase in the fluorescent signal”; in assay [5] (probe 2.0 μM (MCW-011 0.5 μM), PBS), “increase in the fluorescent signal”.
On to `C[C@@H](O)[C@H]1C(=O)N2C(C(=O)O)=C(c3ccc(COc4ccc5nc6ccc(=O)cc-6oc5c4)cc3[N+](=O)[O-])C[C@H]12` [MCW-010, (5R,6S)-6-((R)-1-hydroxyethyl)-3-(2-nitro-4-(((3-oxo-3H-phenoxazin-7-yl)oxy)methyl)phenyl)-7-oxo-1-azabicyclo[3.2.0]hept-2-ene-2-carboxylic acid], for which the “changes in the fluorescence signal with the tested beta-lactamases” value in assay [1] is given as “did not exhibited changes in the fluorescence signal”.
